Laboratory results as given in ChEMBL document CHEMBL3987221, “The Australian National University Dept Of Immunology Pathogen Box Compounds Screened” (2018).
Calls of active or inactive are those of the source. The rule behind the calls is not given here.

Tests used:
[1] = target: T1, Ferrochelatase, mitochondrial (Homo sapiens) (UniProt P22830); details: at 10 µM
T1 sequence (whole entry): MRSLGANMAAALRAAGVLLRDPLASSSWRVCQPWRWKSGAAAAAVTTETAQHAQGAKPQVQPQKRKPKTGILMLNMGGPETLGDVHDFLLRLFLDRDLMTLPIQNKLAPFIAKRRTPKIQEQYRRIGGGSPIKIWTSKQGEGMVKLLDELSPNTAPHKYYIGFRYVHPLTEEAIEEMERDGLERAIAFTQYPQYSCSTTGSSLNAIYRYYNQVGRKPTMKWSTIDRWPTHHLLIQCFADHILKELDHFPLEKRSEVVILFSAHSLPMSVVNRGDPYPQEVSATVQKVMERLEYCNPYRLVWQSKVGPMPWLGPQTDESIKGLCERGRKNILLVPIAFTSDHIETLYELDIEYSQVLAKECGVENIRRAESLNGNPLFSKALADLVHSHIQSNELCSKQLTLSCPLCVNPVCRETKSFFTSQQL
Description: Compound was evaluated for the inhibition of human FECH at 10uM

[2] = target: T2, Porphobilinogen deaminase (Homo sapiens) (UniProt P08397); details: at 100 µM
T2 sequence (whole entry): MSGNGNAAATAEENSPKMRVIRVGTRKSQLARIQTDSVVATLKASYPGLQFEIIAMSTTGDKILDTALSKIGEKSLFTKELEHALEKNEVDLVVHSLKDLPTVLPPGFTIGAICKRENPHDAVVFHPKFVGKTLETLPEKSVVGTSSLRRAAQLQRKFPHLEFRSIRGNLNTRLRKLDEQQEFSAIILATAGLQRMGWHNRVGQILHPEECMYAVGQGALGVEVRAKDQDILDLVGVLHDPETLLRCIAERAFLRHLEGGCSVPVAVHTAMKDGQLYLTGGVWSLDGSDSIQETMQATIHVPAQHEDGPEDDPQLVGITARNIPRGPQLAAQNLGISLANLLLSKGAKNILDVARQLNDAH
Description: Compound was evaluated for the inhibition of human HMBS at 100uM

Structure (SMILES) | inhibition [1] | inhibition [2]
COC(=O)C1=C(C)NC(C)=C(C(=O)OC(C)C)C1c1cccc2nonc12 (configuration not stated) | inactive | inactive
CC(C)(CN)c1nc(-c2ccc(Cl)c(O)c2)c(-c2ccnc(N)n2)[nH]1 | inactive | inactive
Cc1noc(C)c1C(=O)N1CCCC(c2[nH]c3c(C)cccc3c2-c2ccncc2)C1 (configuration not stated) | inactive | inactive
CC(Oc1ccccc1)C(=O)Nc1nc(-c2ccccn2)cs1 (configuration not stated) | inactive | inactive
COc1ccc2nc(C)cc(OCC(=O)NCc3ccccc3)c2c1 | inactive | inactive
Cn1ccnc1CNCCS(=O)(=O)c1cccc(Nc2ccc(-c3cccc(F)c3)cn2)c1 | inactive | inactive
O=C(Nc1ccc(C(F)(F)F)c(C(F)(F)F)c1)c1cc(Cl)ccc1O | inactive | inactive
CCOc1ccc(-c2nc(CNCCc3ccc(F)cc3)cs2)cc1 | inactive | inactive
Cc1cccc(C(=O)Nc2ccnc(N(C)C3CCN(CC(C)C)CC3)c2)c1 | inactive | inactive
Cc1ccccc1CN1CCC(O)(c2ccc(Cl)c(C(F)(F)F)c2)CC1 | inactive | inactive
c1cc(C2=NCCN2)cc(-c2cc(-c3ccc(C4=NCCN4)cc3)no2)c1 | inactive | inactive
c1ccc(-c2cc(N3CCCCC3)c3ccccc3n2)nc1 | inactive | inactive
c1ccc(Oc2ccc(-c3cc(CN4CCOCC4)[nH]n3)cc2)cc1 | inactive | inactive
O=C(Nc1ccccc1-c1nc2c(C(=O)O)cccc2o1)c1ccccc1 | inactive | inactive
COc1ccc(C2=NN(C3CCCCCC3)C(=O)C2(C)C)cc1OCCCCOc1ccc(-c2nn[nH]n2)cc1 | inactive | inactive
CNc1nnc(Sc2cnn(-c3ccccc3)c(=O)c2Cl)s1 | inactive | inactive
Nc1ncnc2c1c(-c1cnc3ccccc3c1)nn2CC1CCNCC1 | inactive | inactive
COc1ccc(-c2nnc3ccc(-c4cccc(C(C)C)c4)cn23)cc1OC | inactive | inactive
O=C(NCCc1ccccc1)c1cc(-c2cccnc2)cnc1NCC1CC1 | inactive | inactive
CC(C)c1ncc(-c2ccncc2)c([C@H]2CC[C@H](CNC(=O)c3cccnc3)CC2)n1 | inactive | inactive
Cc1cccc(-c2nc(Nc3ccncn3)c3sccc3n2)n1 | inactive | inactive
Cc1ccc2[nH]c3c(NCCN(C)C)ncnc3c2c1 | inactive | inactive

Structure (SMILES) | inhibition [1] | inhibition [2]
CNc1snc(C)c1C(=O)NCCOc1ccc(OC)cc1 | inactive | inactive
O=C(C1CCN(c2nnc(-n3cccc3)s2)CC1)N1CCC(Cc2ccccc2)CC1 | inactive | inactive
O=C(c1[nH]nc2c1CCCC2)N1CCN(Cc2ccc3c(c2)OCO3)CC1 | inactive | inactive
CCOc1ccc(-c2nc(NC(=O)CS(=O)(=O)c3ccccc3)sc2C)cc1 | inactive | inactive
Cc1noc(C)c1COc1cccc(C(=O)N=c2[nH]cccc2C)c1 | inactive | inactive
CN(C)CCNC(=O)N1CCCN(c2ncnc3cc(-c4ccccc4)sc23)CC1 | inactive | inactive
O=S(=O)(c1ccc(Cl)cc1)N1CCN(C(=S)NCc2ccco2)CC1 | inactive | inactive
COc1ccc(-c2onc(C(F)(F)F)c2-c2ccc(Cl)cc2)c(O)c1 | inactive | inactive
O=C(Nc1nnc(S)s1)c1cc(Br)ccc1Cl | inactive | inactive
Cc1nc(-c2ccccn2)nc(NCCc2ccc(S(C)(=O)=O)cc2)c1Cl | inactive | inactive
CCOc1ccc2cc(-c3nn(C(C)(C)C)c(N)c3C(N)=O)cnc2c1 | inactive | inactive
CN1CCCN(C(c2ccccc2)c2ccc(Cl)cc2)CC1 (configuration not stated) | inactive | inactive
CCc1ccccc1-n1c(C)cn2c3c(=O)n(C(C(=O)OC)C(C)C)c(=O)n(C)c3nc12 (configuration not stated) | inactive | inactive
CC(=O)NCC1CN(c2ccc(-c3ccc(CNCc4cn[nH]n4)cc3)c(F)c2)C(=O)O1 (configuration not stated) | inactive | inactive
c1ccc(-c2[nH]c3ccccc3c2C(c2ccccn2)N2CCCC2)cc1 (configuration not stated) | inactive | inactive
CN1CCN(c2nccc3[nH]c(-c4cccc(F)c4)cc23)CC1 | inactive | inactive
Cc1cc2ccccc2n1CC(=O)N1CC(C(=O)N2CCCCC2)Oc2ccccc21 (configuration not stated) | inactive | inactive
COc1ccc(Cl)cc1NC(=O)CN(C)C(=O)c1cnn(-c2ccccc2)n1 | inactive | inactive
CC1CS(=O)(=O)CCN1/N=C/c1ccc([N+](=O)[O-])o1 (configuration not stated) | inactive | inactive
C[C@H]1COc2c(N3CCN(C)CC3)c(F)cc3c(=O)c(C(=O)O)cn1c23 | inactive | inactive
O=C(Nc1ccc(N2CCNCC2)cc1)c1ccn2ncc(-c3cccc(Cl)c3)c2n1 | inactive | inactive
Cc1ccc2nc(C)c(-c3ccn(Cc4ccccc4)n3)n2c1 | inactive | inactive

Structure (SMILES) | inhibition [1] | inhibition [2]
N#CCN(CCCCN1CCN(c2ccc(F)cc2)CC1)C(=O)OCc1ccccc1 | inactive | inactive
CO[C@@H](C(=O)N1Cc2[nH]nc(NC(=O)c3ccc(N4CCN(C)CC4)cc3)c2C1)c1ccccc1 | inactive | inactive
c1ccc(-c2nc(NC3CCCCC3)cc(C3CC3)n2)nc1 | inactive | inactive
Cc1ccc(S(=O)(=O)Nc2ccc(CN3CCN(C(=O)c4cccc(C#N)c4)CC3)cc2)cc1 | inactive | inactive
C[C@H](C(N)=O)N1CCCC[C@H]1c1ccc(OCc2cccc(F)c2)cc1 | inactive | inactive
CC(=O)NC[C@H]1CN(c2ccc(N3CCSCC3)c(F)c2)C(=O)O1 | inactive | inactive
Cc1nn2c(=O)c3c([nH]c2c1-c1ccc(Cl)cc1)CCCC3 | inactive | inactive
COc1cccc(OC)c1C(=O)Nc1ccc(Cl)c(-c2nc3ccccc3s2)c1 | inactive | inactive
Clc1ccc(Cl)c(CO[C@H]2CCCC[C@@H]2n2ccnc2)c1 | inactive | inactive
N#Cc1nc(-c2ccccc2)oc1S(=O)(=O)c1ccc(Cl)cc1 | inactive | inactive
O=C1[C@@H](Oc2ccccc2)[C@@H](c2ccc(Cl)cc2)N1CCn1cnc2c(NCc3ccccc3)ncnc21 | inactive | inactive
Clc1ccc(CN2CCN(C3=NCCN3)CC2)cc1Cl | inactive | inactive
Cc1nn(C(=O)Nc2cccc(C(F)(F)F)c2)c(C)c1Sc1ncccn1 | inactive | inactive
CC(=O)NC[C@@H]1CN(c2ccc(N3CCOCC3)c(F)c2)C(=O)O1 | inactive | inactive
CCC(=O)Nc1ccccc1C(=O)Nc1ccccn1 | inactive | inactive
CN1CCN(c2nccc3nc(-c4ccc(F)c(F)c4)[nH]c23)CC1 | inactive | inactive
Cc1cc(C)c2cc(C(=O)NC3CCCCCCC3)[nH]c2c1 | inactive | inactive
COc1cc(C(F)(F)F)nc2ccc(C)c(N)c12 | inactive | inactive
CN(C)c1cc(NC(=O)Nc2ccccc2)c2ccccc2n1 | inactive | inactive
CC(=O)NCC1CN(c2ccc(-c3ccc(CO)cc3)c(F)c2)C(=O)O1 (configuration not stated) | inactive | inactive
COc1ccc(OC(C)C(=O)Nc2ccc(Cl)cc2C)cc1 (configuration not stated) | inactive | inactive
CC(C)(C)c1cc(C(=O)N2CCN(c3nccnc3C#N)CC2)n(Cc2ccccc2)n1 | inactive | inactive
